What was measured:
Experiment in all cases: relative viability (nuclei count vs DMSO), 5 days (fraction); higher = more cells survive
Erlotinib + Navitoclax = compound: C#Cc1cccc(Nc2ncnc3cc(OCCOC)c(OCCOC)cc23)c1 [Erlotinib] + CC1(C)CCC(c2ccc(Cl)cc2)=C(CN2CCN(c3ccc(C(=O)NS(=O)(=O)c4ccc(N[C@H](CCN5CCOCC5)CSc5ccccc5)c(S(=O)(=O)C(F)(F)F)c4)cc3)CC2)C1 [Navitoclax] (partner 0.5 µM)
Outline: (§1)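 Dosing by pin tool came one day after lung cancer cell lines were seeded in 1536-well plates, using either one drug or a fixed anchor-drug dose plus five library-drug doses (not always all listed) in √10 steps. After 5 days, nuclei were counted on 4× images. Relative viability is treated-well nuclei count divided by vehicle-well nuclei count, and values are medians of duplicate plates.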

Erlotinib + Pemetrexed = compound: C#Cc1cccc(Nc2ncnc3cc(OCCOC)c(OCCOC)cc23)c1 [Erlotinib] + Nc1nc2[nH]cc(CCc3ccc(C(=O)N[C@@H](CCC(=O)O)C(=O)O)cc3)c2c(=O)[nH]1 [Pemetrexed] (partner 0.2 µM)
Outline: as §1

Erlotinib + Dasatinib = compound: C#Cc1cccc(Nc2ncnc3cc(OCCOC)c(OCCOC)cc23)c1 [Erlotinib] + Cc1nc(Nc2ncc(C(=O)Nc3c(C)cccc3Cl)s2)cc(N2CCN(CCO)CC2)n1 [Dasatinib] (partner 0.075 µM)
Outline: as §1

NCI-H322M
relative viability (Erlotinib + Navitoclax; first compound 0.02 µM): 1.12
relative viability (Erlotinib + Navitoclax; first compound 0.2 µM): 1.09
relative viability (Erlotinib + Navitoclax; first compound 0.6325 µM): 0.77
relative viability (Erlotinib + Navitoclax; first compound 2 µM): 0.468
relative viability (Erlotinib + Pemetrexed; first compound 0.02 µM): 0.604
relative viability (Erlotinib + Pemetrexed; first compound 0.2 µM): 0.548
relative viability (Erlotinib + Pemetrexed; first compound 0.6325 µM): 0.521
relative viability (Erlotinib + Pemetrexed; first compound 2 µM): 0.507
relative viability (Erlotinib + Dasatinib; first compound 0.02 µM): 0.231
relative viability (Erlotinib + Dasatinib; first compound 0.2 µM): 0.246
relative viability (Erlotinib + Dasatinib; first compound 0.6325 µM): 0.257
relative viability (Erlotinib + Dasatinib; first compound 2 µM): 0.238

NCI-H358
relative viability (Erlotinib + Pemetrexed; first compound 0.02 µM): 0.176
relative viability (Erlotinib + Pemetrexed; first compound 0.2 µM): 0.156
relative viability (Erlotinib + Pemetrexed; first compound 0.6325 µM): 0.147
relative viability (Erlotinib + Pemetrexed; first compound 2 µM): 0.164
relative viability (Erlotinib + Dasatinib; first compound 0.02 µM): 0.174
relative viability (Erlotinib + Dasatinib; first compound 0.2 µM): 0.129
relative viability (Erlotinib + Dasatinib; first compound 0.6325 µM): 0.133
relative viability (Erlotinib + Dasatinib; first compound 2 µM): 0.171

NCI-H460
relative viability (Erlotinib + Navitoclax; first compound 0.02 µM): 1.09
relative viability (Erlotinib + Navitoclax; first compound 0.2 µM): 0.867
relative viability (Erlotinib + Navitoclax; first compound 0.6325 µM): 1.44
relative viability (Erlotinib + Pemetrexed; first compound 0.02 µM): 0.0628
relative viability (Erlotinib + Pemetrexed; first compound 0.2 µM): 0.0521
relative viability (Erlotinib + Pemetrexed; first compound 0.6325 µM): 0.0611
relative viability (Erlotinib + Pemetrexed; first compound 2 µM): 0.0588
relative viability (Erlotinib + Dasatinib; first compound 0.02 µM): 0.486
relative viability (Erlotinib + Dasatinib; first compound 0.2 µM): 0.51
relative viability (Erlotinib + Dasatinib; first compound 0.6325 µM): 0.5
relative viability (Erlotinib + Dasatinib; first compound 2 µM): 0.432

NCI-H520
relative viability (Erlotinib + Navitoclax; first compound 0.02 µM): 1.17
relative viability (Erlotinib + Navitoclax; first compound 0.2 µM): 1.11
relative viability (Erlotinib + Navitoclax; first compound 0.6325 µM): 1.29
relative viability (Erlotinib + Navitoclax; first compound 2 µM): 1.12
relative viability (Erlotinib + Pemetrexed; first compound 0.02 µM): 0.847
relative viability (Erlotinib + Pemetrexed; first compound 0.2 µM): 0.749
relative viability (Erlotinib + Pemetrexed; first compound 2 µM): 0.609
relative viability (Erlotinib + Dasatinib; first compound 0.02 µM): 0.188
relative viability (Erlotinib + Dasatinib; first compound 0.2 µM): 0.186
relative viability (Erlotinib + Dasatinib; first compound 0.6325 µM): 0.245
relative viability (Erlotinib + Dasatinib; first compound 2 µM): 0.234

NCI-H522
relative viability (Erlotinib + Pemetrexed; first compound 0.02 µM): 0.94
relative viability (Erlotinib + Pemetrexed; first compound 0.2 µM): 1.08
relative viability (Erlotinib + Pemetrexed; first compound 0.6325 µM): 1.12
relative viability (Erlotinib + Pemetrexed; first compound 2 µM): 0.811
relative viability (Erlotinib + Dasatinib; first compound 0.02 µM): 0.812
relative viability (Erlotinib + Dasatinib; first compound 0.2 µM): 0.784
relative viability (Erlotinib + Dasatinib; first compound 0.6325 µM): 1.06
relative viability (Erlotinib + Dasatinib; first compound 2 µM): 0.85

NCI-H596
relative viability (Erlotinib + Navitoclax; first compound 0.02 µM): 1.02
relative viability (Erlotinib + Navitoclax; first compound 0.2 µM): 0.751
relative viability (Erlotinib + Navitoclax; first compound 0.6325 µM): 1.06
relative viability (Erlotinib + Navitoclax; first compound 2 µM): 0.813
relative viability (Erlotinib + Pemetrexed; first compound 0.02 µM): 0.609
relative viability (Erlotinib + Pemetrexed; first compound 0.2 µM): 0.455
relative viability (Erlotinib + Pemetrexed; first compound 0.6325 µM): 0.489
relative viability (Erlotinib + Pemetrexed; first compound 2 µM): 0.457
relative viability (Erlotinib + Dasatinib; first compound 0.02 µM): 0.634
relative viability (Erlotinib + Dasatinib; first compound 0.2 µM): 0.565
relative viability (Erlotinib + Dasatinib; first compound 0.6325 µM): 0.538
relative viability (Erlotinib + Dasatinib; first compound 2 µM): 0.472

NCI-H647
relative viability (Erlotinib + Navitoclax; first compound 0.02 µM): 1.42
relative viability (Erlotinib + Navitoclax; first compound 0.2 µM): 0.955
relative viability (Erlotinib + Navitoclax; first compound 0.6325 µM): 1.5
relative viability (Erlotinib + Navitoclax; first compound 2 µM): 0.991
relative viability (Erlotinib + Pemetrexed; first compound 0.02 µM): 0.173
relative viability (Erlotinib + Pemetrexed; first compound 0.2 µM): 0.187
relative viability (Erlotinib + Pemetrexed; first compound 0.6325 µM): 0.19
relative viability (Erlotinib + Pemetrexed; first compound 2 µM): 0.151
relative viability (Erlotinib + Dasatinib; first compound 0.02 µM): 0.274
relative viability (Erlotinib + Dasatinib; first compound 0.2 µM): 0.117
relative viability (Erlotinib + Dasatinib; first compound 0.6325 µM): 0.221
relative viability (Erlotinib + Dasatinib; first compound 2 µM): 0.144

NCI-H650
relative viability (Erlotinib + Pemetrexed; first compound 0.02 µM): 0.966
relative viability (Erlotinib + Pemetrexed; first compound 0.2 µM): 0.852
relative viability (Erlotinib + Pemetrexed; first compound 0.6325 µM): 0.991
relative viability (Erlotinib + Pemetrexed; first compound 2 µM): 1
relative viability (Erlotinib + Dasatinib; first compound 0.02 µM): 0.38
relative viability (Erlotinib + Dasatinib; first compound 0.2 µM): 0.456
relative viability (Erlotinib + Dasatinib; first compound 0.6325 µM): 0.526
relative viability (Erlotinib + Dasatinib; first compound 2 µM): 0.425

NCI-H661
relative viability (Erlotinib + Pemetrexed; first compound 0.02 µM): 0.925
relative viability (Erlotinib + Pemetrexed; first compound 0.2 µM): 0.841
relative viability (Erlotinib + Pemetrexed; first compound 0.6325 µM): 0.838
relative viability (Erlotinib + Pemetrexed; first compound 2 µM): 0.828
relative viability (Erlotinib + Dasatinib; first compound 0.02 µM): 0.912
relative viability (Erlotinib + Dasatinib; first compound 0.2 µM): 0.693
relative viability (Erlotinib + Dasatinib; first compound 0.6325 µM): 0.735
relative viability (Erlotinib + Dasatinib; first compound 2 µM): 0.443

NCI-H727
relative viability (Erlotinib + Navitoclax; first compound 0.02 µM): 0.447
relative viability (Erlotinib + Navitoclax; first compound 0.2 µM): 0.393
relative viability (Erlotinib + Navitoclax; first compound 0.6325 µM): 0.384
relative viability (Erlotinib + Navitoclax; first compound 2 µM): 0.347
relative viability (Erlotinib + Dasatinib; first compound 0.02 µM): 0.308
relative viability (Erlotinib + Dasatinib; first compound 0.6325 µM): 0.295
relative viability (Erlotinib + Dasatinib; first compound 2 µM): 0.322

NCI-H838
relative viability (Erlotinib + Navitoclax; first compound 0.02 µM): 1.26
relative viability (Erlotinib + Navitoclax; first compound 0.2 µM): 1.11
relative viability (Erlotinib + Navitoclax; first compound 0.6325 µM): 1.27
relative viability (Erlotinib + Navitoclax; first compound 2 µM): 1.05
relative viability (Erlotinib + Pemetrexed; first compound 0.02 µM): 0.263
relative viability (Erlotinib + Pemetrexed; first compound 0.2 µM): 0.253
relative viability (Erlotinib + Pemetrexed; first compound 0.6325 µM): 0.233
relative viability (Erlotinib + Pemetrexed; first compound 2 µM): 0.266
relative viability (Erlotinib + Dasatinib; first compound 0.02 µM): 0.29
relative viability (Erlotinib + Dasatinib; first compound 0.2 µM): 0.308
relative viability (Erlotinib + Dasatinib; first compound 0.6325 µM): 0.288
relative viability (Erlotinib + Dasatinib; first compound 2 µM): 0.317

NCI-H1299
relative viability (Erlotinib + Navitoclax; first compound 0.02 µM): 1.11
relative viability (Erlotinib + Navitoclax; first compound 0.2 µM): 1.08
relative viability (Erlotinib + Navitoclax; first compound 0.6325 µM): 1.06
relative viability (Erlotinib + Navitoclax; first compound 2 µM): 0.981

NCI-H1355
relative viability (Erlotinib + Navitoclax; first compound 0.02 µM): 1.02
relative viability (Erlotinib + Navitoclax; first compound 0.2 µM): 0.9
relative viability (Erlotinib + Navitoclax; first compound 0.6325 µM): 0.812
relative viability (Erlotinib + Navitoclax; first compound 2 µM): 0.675
relative viability (Erlotinib + Pemetrexed; first compound 0.02 µM): 1.06
relative viability (Erlotinib + Pemetrexed; first compound 0.2 µM): 0.995
relative viability (Erlotinib + Pemetrexed; first compound 0.6325 µM): 1.03
relative viability (Erlotinib + Dasatinib; first compound 0.02 µM): 0.701
relative viability (Erlotinib + Dasatinib; first compound 0.2 µM): 0.571
relative viability (Erlotinib + Dasatinib; first compound 0.6325 µM): 0.666
relative viability (Erlotinib + Dasatinib; first compound 2 µM): 0.472

NCI-H1395
relative viability (Erlotinib + Navitoclax; first compound 0.02 µM): 1.09
relative viability (Erlotinib + Navitoclax; first compound 0.2 µM): 1.02
relative viability (Erlotinib + Navitoclax; first compound 0.6325 µM): 1.32
relative viability (Erlotinib + Navitoclax; first compound 2 µM): 1.13
relative viability (Erlotinib + Pemetrexed; first compound 0.02 µM): 0.807
relative viability (Erlotinib + Pemetrexed; first compound 0.2 µM): 0.959
relative viability (Erlotinib + Pemetrexed; first compound 0.6325 µM): 0.868
relative viability (Erlotinib + Pemetrexed; first compound 2 µM): 0.794
relative viability (Erlotinib + Dasatinib; first compound 0.02 µM): 0.405
relative viability (Erlotinib + Dasatinib; first compound 0.2 µM): 0.442
relative viability (Erlotinib + Dasatinib; first compound 0.6325 µM): 0.411
relative viability (Erlotinib + Dasatinib; first compound 2 µM): 0.408

NCI-H1437
relative viability (Erlotinib + Navitoclax; first compound 0.2 µM): 1.15
relative viability (Erlotinib + Navitoclax; first compound 2 µM): 0.976
relative viability (Erlotinib + Pemetrexed; first compound 0.02 µM): 0.33
relative viability (Erlotinib + Pemetrexed; first compound 0.2 µM): 0.33
relative viability (Erlotinib + Pemetrexed; first compound 0.6325 µM): 0.395
relative viability (Erlotinib + Pemetrexed; first compound 2 µM): 0.27
relative viability (Erlotinib + Dasatinib; first compound 0.02 µM): 0.357
relative viability (Erlotinib + Dasatinib; first compound 0.2 µM): 0.433
relative viability (Erlotinib + Dasatinib; first compound 0.6325 µM): 0.46
relative viability (Erlotinib + Dasatinib; first compound 2 µM): 0.339

NCI-H1563
relative viability (Erlotinib + Pemetrexed; first compound 0.02 µM): 0.659
relative viability (Erlotinib + Pemetrexed; first compound 0.2 µM): 0.83
relative viability (Erlotinib + Pemetrexed; first compound 0.6325 µM): 0.92
relative viability (Erlotinib + Dasatinib; first compound 0.02 µM): 0.38
relative viability (Erlotinib + Dasatinib; first compound 0.2 µM): 0.522
relative viability (Erlotinib + Dasatinib; first compound 0.6325 µM): 0.427
relative viability (Erlotinib + Dasatinib; first compound 2 µM): 0.382
